# Laboratory results as given in PMC2567432 (PLoS ONE, 2008).
# Entries after “also recorded” stand apart in the source; their conditions may differ.
# Columns and labels:
# [1] = test system: brain astrocytoma 1321N1 cells; experiment: Cell proliferation WST-1 assay, 1321N1; assay type: cell-based
# Procedure: (§1) Figure 3 Growth inhibition of different tumor cell lines by polyphenols. […] Following 24-h incubation, cell proliferation was evaluated using the WST-1 assay.
# (§2) Tumor cells were cultured in RPMI medium containing 10% fetal calf serum (RPMI-FCS) (PC-3, JIMT-1, MDA-MD 231) or in DMEM-FCS (astrocytoma 1321N1 cells) containing penicillin/streptomycin (100 U penicillin/ml; 100 µg streptomycin/ml) at 37°C/5% CO2. Cytosolic protein extracts of tumor cells were prepared using extraction buffer composed of 25 mM Tris, 2 mM EDTA, 10% Glycerol, 1% Triton ×100, 2 mM DTT, 1mM PMSF, pH. 7.0 containing 0.3% protease inhibitor cocktail. Protein content was determined according to Bradford. Specific activity of enzymes analyzed in cell extracts was expressed as U/mg protein.
# (§3) Cell proliferation/vitality of tumor cells (96-well plates; 5000 cells/well) and primary human hepatocytes (24-well plates; 0.25×10^6 cells/well) was assayed using the WST-1 assay according to manufacturer's instructions. Trypan blue exclusion was performed by staining cells with 0.4% aqueous trypan blue solution according to the manufacturer's instructions.
# JIMT-1 cells [2] = experiment: Cellular ATP content (CellTiter-Glo), JIMT-1; assay type: cell-based, human; details: JIMT-1, 6 h; curcumin 0–100 µM, MGO 0–1000 µM
# Procedure: (§4) Cellular ATP content was determined using the CellTiter-Glo® Luminescent Cell Viability Assay. Data represent the mean±S.D. of independent experiments (n = 12).
# (§5) Cell ATP content was determined by means of the CellTiter-Glo® Luminescent Cell Viability Assay according to the manufacturer's instructions (Promega, Madison, USA). […] After 6-h incubation, cells were mixed with test reagents and luminescence was read according to the manufacturer's instructions. A standard curve was prepared from ATP (1 µM to 10 nM) in medium.
# [3] = test system: primary human hepatocytes; experiment: Vitality of primary human hepatocytes (WST-1); assay type: cell-based; details: 24-h incubation, increasing concentrations
# Procedure: (§6) Apoptosis/necrosis was evaluated using annexin V-5-fluorescein isothiocyanate (FITC)/propidium iodine (PI) staining followed by flow cytometric analysis. […] The proportion of dead cells (a: annexin V-FITC^−/PI^+), late apoptotic/necrotic cells (b: annexin V-FITC^+/PI^+), non-apoptotic cells (c: annexin V-FITC^−/PI^−) and early apoptotic cells (d: annexin V-FITC^+/PI^−). (B) Results of 3 independent experiments. […] Data represent the mean±S.D. of three independent experiments.
# Primary human hepatocytes were isolated and cultivated in serum-free William Medium E [59]. Tissue samples from human liver resection were obtained from patients undergoing partial hepatectomy for metastatic liver tumor of colorectal cancer. Experimental procedures were performed according to the guidelines of the charitable state controlled foundation (Human Tissue and Cell Research), with the informed patient's consent approved by the local ethical committee.
# as §3
# astrocytoma 1321N1 cells [4] = experiment: Apoptosis/necrosis by annexin V-FITC/PI staining, flow cytometry; assay type: cell-based; details: 24 h
# Procedure: as §6
# Samples were analyzed by flow cytometry using a FACSCalibur and the CellQuest software (BD Biosciences, San Jose, USA). Laser excitation wavelength was set at 488 nm. The green signal from annexin V-FITC was measured at 525 nm and the red signal from PI was measured at 620 nm. Annexin V^−/PI^− cells are viable; annexin V^+/PI^− cells are in early apoptosis, whereas annexin V^+/PI^+ cells are necrotic or in late apoptosis are […]
# JIMT-1 cells [5] = experiment: Glutathione (GSH) level in cytosolic extract, JIMT-1; assay type: cell-based, human; details: JIMT-1, 50 µM, 24 h
# Procedure: (§7) Cells were harvested and GSH concentration was determined in the cytosolic extract. Data represent the mean±S.D. of independent experiments (n = 6).
# (§8) GSH was determined using DTNB method. Briefly, cytosolic extract of tumor cells were precipitated by 5% sulfosalicylic acid neutralization, aliquots were mixed with DTNB and absorbance was read at 412 nm against a standard solution of GSH.
# astrocytoma 1321N1 cells [6] = experiment: Cellular ATP content (CellTiter-Glo), 1321N1; assay type: cell-based; details: 1321N1, 6 h; curcumin 0–100 µM, MGO 0–1000 µM
# Procedure: as §4, §5
# 1321N1 cells = experiment: Glutathione (GSH) level in cytosolic extract, 1321N1; assay type: cell-based; details: 1321N1, 50 µM, 24 h
# Procedure: as §7, §8
# [7] = test system: prostate cancer PC-3 cells; experiment: Cell proliferation WST-1 assay, PC-3; assay type: cell-based
# Procedure: as §1, §2, §3
# glyoxalase 1 (Glo1) = molecular target: T1, glyoxalase 1 (Glo1) (Homo sapiens, UniProt Q04760); experiment: Inhibition of purified glyoxalase 1 activity (Dixon plot); assay type: biochemical; details: Dixon plot / model fit
# T1 construct: Glo1 was purified from human erythrocytes as described earlier; from tissue; host or cells: human erythrocytes
# T1 sequence (Q04760 2-184 limits assumed): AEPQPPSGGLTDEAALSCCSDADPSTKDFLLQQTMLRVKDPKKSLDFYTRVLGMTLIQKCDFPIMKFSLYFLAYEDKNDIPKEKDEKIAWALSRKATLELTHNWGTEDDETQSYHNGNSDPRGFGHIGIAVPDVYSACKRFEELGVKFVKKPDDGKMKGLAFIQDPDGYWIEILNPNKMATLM
# Procedure: Purified Glo1 (70 mU) was incubated with increasing concentrations of different polyphenols at three substrate concentrations; and enzyme activity was recorded (n = 3). The inhibitor concentration was plotted vs. the reciprocal of enzyme activity (1/v) in Dixon plots.
# Glo1 was purified from human erythrocytes as described earlier. Briefly, erythrocytes were treated with butanol/chloroform to denature hemoglobin followed by acetone and ammonium sulphate fractionation.
# The determination of Glo1 (E.C.4.4.1.5) activity has been described previously. […] The inhibition constant, Ki value of the inhibitors was evaluated by Dixon plot showing the reciprocal of enzyme velocity against the inhibitor concentration at variable concentrations of the substrate. Human Glo2 (E.C.3.1.2.6) was measured using the substrate S-lactoylglutathione as described earlier.
# A goodness-of-fit criterion (Akaike's information criterion, AIC) was used for falsification of incompatible inhibition models. […] Spearman's rank correlation test was applied to evaluate the correlation between the IC50 values of pro-inflammatory cytokine release and the Ki-values of various polyphenols. Data were presented as means±S.D. of at least three independent experiments. […] In all other tests, significance has been considered at values of p<0.05.
smiles,measurement,setting,value
"COc1cc(C=CC(=O)CC(=O)C=Cc2ccc(O)c(OC)c2)ccc1O [curcumin, 1,7-bis(4-hydroxy-3-methoxyphenyl)-1,6-heptadiene-3,5-dione]",concentration giving strong anti-proliferative effects,"[1]; 1321N1, 24 h, WST-1",above 50 µM
same,inhibition at 50 µM,"[1]; Homo sapiens, 1321N1, 50 µM, 24 h",~30%
same,cellular ATP content,JIMT-1 cells [2],decreased cellular ATP in a concentration-dependent manner
same,cell vitality of primary human hepatocytes,[3],no effect; also recorded: not affected
same,early apoptotic cells (annexin V-FITC+/PI−),astrocytoma 1321N1 cells [4]; 10 µM,11.0%
same,late apoptotic/necrotic cells (annexin V-FITC+/PI+),astrocytoma 1321N1 cells [4]; 50 µM,98.2%
same,GSH diminished by,JIMT-1 cells [5],approximately 20%
same,cellular ATP content,astrocytoma 1321N1 cells [6],decreased cellular ATP in a concentration-dependent manner
same,GSH diminished by,1321N1 cells,approximately 20%
same,effect on PC-3 cells at 100 µM,"[7]; 100 µM, 24 h, morphology lost, necrotic cell death",toxic effect
same,concentration giving strong anti-proliferative effects,"[7]; PC-3, 24 h, WST-1",above 50 µM
same,mode of enzyme inhibition,glyoxalase 1 (Glo1),competitive
